Experiments:
[1] = system: splenocytes from HLA-A*0201 transgenic C57BL/6 mice; experiment: IL-2 ELISPOT of splenocytes restimulated with peptide; type: cell-based, mouse; settings: for IL-2 ELISPOT, RSV: splenocytes of HLA-Tg B6 mice primed and boosted i.n. with 10^4 pfu RSV-B1; for IL-2 ELISPOT, RSV / IL-2 ELISPOT, rAd-F0: restimulated with 2 µg peptide, representative of two experiments, five mice per group; for IL-2 ELISPOT, rAd-F0: splenocytes of HLA-Tg B6 mice primed and boosted i.n. with 10^7 pfu rAd-F0; for IL-2 level in restimulated splenocytes (ELISPOT, text grading): splenocytes of rAd-F0- or RSV B1-primed and boosted HLA-Tg B6 mice, high = over 100 spots, moderate = over 50 spots
Method: (§1) To screen the immunodominance of epitopic peptide in the induction of RSV-F specific Th1/Th2 expression, HLA-A*0201 transgenic C57BL/6 mice were anesthetized with isoflurane and immunized with 1×10^7 pfu/50 µL of rAd-F0 or rAd-LacZ or 1×10^4 live RSV B1 via the intranasal (i.n.) route. Twenty days later, the mice were given booster immunization i.n. with the same dose. After 10 days of boost, mice were sacrificed and splenocytes were isolated for the cytokine ELISPOT assay. For peptide-based vaccination, transgenic mice were immunized subcutaneously (s.c.) with 50 µg of the individual synthetic peptides emulsified in 25 µL of incomplete Freund's adjuvant (IFA) (Sigma-Aldrich) and then boosted after 10 days s.c. with the same dose of the respective peptides mixed with IFA. Mice were sacrificed 7 days after the booster and splenocytes were isolated for in vitro peptide-restimulation. For challenge studies, 10^7 pfu of live RSV-B1 was administered i.n. seven days after the booster immunization with peptide vaccines. Mice were sacrificed on day 4 post-challenge and the lung tissues were collected and subjected to further analysis by flow cytometry, ELISA, CTL assay and immunohistochemistry. Mice body weight was monitored daily.
(§2) […] RBC-free splenocyte suspensions prepared from the individual mice were seeded in individual wells of 96-well filtration plates (Millipore) precoated with capturing monoclonal antibodies for murine IL-2, IL-4 or IFN-γ (0.5 µg/ well) (eBioscience) and blocked with conditioned medium (CM) for 1 hour at room temperature. The splenocytes were added with the individual RSV F 9-mer synthetic peptides (2 µg each) or GLC-9 dissolved in CM (100 µL). The splenocytes added with Con A (10 µg/mL) were used as positive control. Unstimulated splenocytes were used as negative control. The plates were kept in a 37°C incubator equilibrated with 5% CO2 for 48 hours. The individual wells of the ELISPOT plates were washed three times with washing buffer (0.05% tween20 in PBS, PBS-T), and then 0.2 µg of the corresponding biotinylated detection monoclonal antibodies specific for IL-2, IL-4 and IFN-γ were added to detect the respective cytokines. After 2 hours of incubation at room temperature, the plates were washed and 100 µl of streptavidin-alkaline phosphatase (1∶ 250 dilution) was added to the individual wells, and the plates were incubated at room temperature for 45 minutes. Finally, the plates were washed four times with the wash buffer, and 100 µl of AEC (3-amine-9-ethylcarbazole, Sigma-Aldrich) substrate was added to each well and allowed to react for 30 minutes at room temperature in the dark. The plates were then washed with water, air-dried overnight, and the spots per well were scored using the immunospot counting reader (C.T.L. IMMUNOSPOT, CELLULAR TECHNOLOGY LTD). Results were expressed as the number of cytokine-secreting cells per 5×10^5 splenocytes seeded in the initial culture.
(§3) Figure 1 Induction of IFN-γ and IL-2 in splenocytes from RSV F peptide immunized HLA-A*0201 transgenic mice upon secondary recall. Splenocytes harvested on day 30 from HLA-A-Tg B6 mice primed and boosted at 20 days interval intranasally with 10^7 pfu of rAd-F0 (□) or 10^4 pfu of RSV-B1 (▪)were restimulated with 2 µg of the individual RSV F peptide or 10 µg/ml Con A for 5 days in the presence of murine IL-2 . After stimulation, 5×10^5 splenocytes were seeded to anti-IFN-γ (A) or anti-IL-2 (B) capture antibody coated ELISPOT plates for 2 days for ELISPOT assay as described in Materials and Methods. Cytokine-positive immunospots were developed and the results are expressed as the number of immunospots +/−2 standard deviations for each experimental group. Data is representative of results derived from two independent experiments, each with five mice per group.

[2] = system: splenocytes from HLA-A*0201 transgenic C57BL/6 mice; experiment: IFN-γ ELISPOT of splenocytes restimulated with peptide; type: cell-based, mouse; settings: for IFN-γ ELISPOT, RSV: splenocytes of HLA-Tg B6 mice primed and boosted i.n. with 10^4 pfu RSV-B1; for IFN-γ ELISPOT, RSV / IFN-γ ELISPOT, rAd-F0: restimulated with 2 µg peptide, representative of two experiments, five mice per group; for IFN-γ ELISPOT, rAd-F0: splenocytes of HLA-Tg B6 mice primed and boosted i.n. with 10^7 pfu rAd-F0; for IFN-γ level in restimulated splenocytes (ELISPOT, text grading): splenocytes of rAd-F0- or RSV B1-primed and boosted HLA-Tg B6 mice, high = over 100 spots, moderate = over 50 spots
Method: as §1, §2, §3

[3] = target: T1, HLA-A*0201 (Homo sapiens, UniProt P04439, D140Y/D185E/D98H/E176V/E277Q/G131W/G231S/I119V/I121R/I166T/I218V/L300P/L318F/N151K/N90K/P208A/P217A/Q86G/Q94H/R138H/R169H/T345S); experiment: T2 cell-stabilization assay (T2-binding); settings: for T2-binding Ratio of MFI: T2 cells 5×10^5, peptide 50 µg/mL + β2-microglobulin 5 µg/mL, 28°C 16–18 h, then brefeldin A 10 µg/mL 37°C 3 h, FITC anti-HLA-A2, flow cytometry, MFI relative to negative control HCV C55-74 (set as 1); for binding affinity, MFI higher than the baseline: baseline = negative control HCV C55-74, called modest binding affinity
T1 construct: Human T2 cells (purchased from the American Type Culture Collection, ATCC) (ATCC No. CRL-1992) expressing the HLA-A*0201 gene; endogenous in cells; host or cells: human T2 cells (ATCC CRL-1992)
Method: T2 cells (5×10^5) cultured in 96-well U-bottom plates were incubated with the individual 9-mer synthetic peptides (50 µg/mL) and β2-microglobulin (5 µg/mL; Sigma-Aldrich) at 28°C for 16–18 hours. Subsequently, brefeldin A (10 µg/mL) was added and the cells were incubated at 37°C for another 3 hours, then washed and stained with fluorescence isothiocyanate (FITC)-conjugated mouse anti-human HLA-A2 antibody (SeroTec). Peptide-loaded T2 cells were acquired and analyzed on the FACScan flow cytometer using CellQuest software (Becton Dickinson). GLC-9 peptide was used as positive control (PC). The mean fluorescence intensity (MFI) represents the binding affinity of each peptide compared to MFI (set as MFI = 1) obtained from negative control (NC), which is T2 cells loaded with HCV peptide C55-74.
Twenty-five 9-mer synthetic peptides derived from the RSV F glycoprotein sequence presumed to encompass HLA-A*0201 binding motifs were synthesized (Table 1). Each was tested for its ability to bind HLA-A*0201 molecules by T2 cell-based binding assay (data not shown). The relative mean fluorescence intensity (MFI) obtained from the positive control (PC) peptide derived from Epstein-Barr virus capsid protein (GLC-9, a previously defined HLA-A*0201-restricted CTL epitope) was twofold (MFI = 1.96) compared to the baseline MFI = 1 obtained from the negative control (NC) treated with an unrelated peptide HCV C55-74 (a C57BL/6-specific CD4 epitope). […] The remaining peptides had no detectable binding to the HLA-A*0201 molecules. Apparently, the different MFIs generated by binding of RSV F-derived peptides to HLA-A*0201 reflects on the binding specificity of different peptides to a given HLA molecule.

| Substance | IL-2 ELISPOT, RSV [1] | IL-2 ELISPOT, rAd-F0 [1] | IL-2 level in restimulated splenocytes (ELISPOT, text grading) [1] | IFN-γ ELISPOT, RSV [2] | IFN-γ ELISPOT, rAd-F0 [2] | IFN-γ level in restimulated splenocytes (ELISPOT, text grading) [2] | T2-binding Ratio of MFI [3] | binding affinity, MFI higher than the baseline ([3]; T2 cell-based binding assay) | binding to the HLA-A*0201 molecules (in words) ([3]; T2 cell-based binding assay) | T2-binding Ratio of MFI ([3]; listed as N) |
| --- | --- | --- | --- | --- | --- | --- | --- | --- | --- | --- |
| 5: HLA-A*0201-restricted 9-mer synthetic peptide from F protein of RSV-B1 strain (FMNYTLNNT) [compound 5] | 58.5 cytokine-secreting cells per 5×10^5 splenocytes | 38 cytokine-secreting cells per 5×10^5 splenocytes | over 50 spots | 12.5 cytokine-secreting cells per 5×10^5 splenocytes | 73 cytokine-secreting cells per 5×10^5 splenocytes | over 50 spots | 0.96 |  |  |  |
| 25: HLA-A*0201-restricted 9-mer synthetic peptide from F protein of RSV-B1 strain (SLIAVGLLL) [compound 25] | 44.5 cytokine-secreting cells per 5×10^5 splenocytes | 31 cytokine-secreting cells per 5×10^5 splenocytes |  | 96 cytokine-secreting cells per 5×10^5 splenocytes | 41 cytokine-secreting cells per 5×10^5 splenocytes | over 50 spots | 1.42 | ~10% |  |  |
| TLLLWVLLL [peptide 1, HLA-A*0201-restricted 9-mer synthetic peptide from F protein of RSV-B1 strain] | 39.5 cytokine-secreting cells per 5×10^5 splenocytes | 85.5 cytokine-secreting cells per 5×10^5 splenocytes | over 50 spots | 69.5 cytokine-secreting cells per 5×10^5 splenocytes | 33.5 cytokine-secreting cells per 5×10^5 splenocytes | over 50 spots | 1.19 | ~10% |  |  |
| LLWVLLLWV [peptide 2, HLA-A*0201-restricted 9-mer synthetic peptide from F protein of RSV-B1 strain] | 42 cytokine-secreting cells per 5×10^5 splenocytes | 34.5 cytokine-secreting cells per 5×10^5 splenocytes |  | 46.5 cytokine-secreting cells per 5×10^5 splenocytes | 46.5 cytokine-secreting cells per 5×10^5 splenocytes | over 50 spots | 0.97 |  |  |  |
| 21: HLA-A*0201-restricted 9-mer synthetic peptide from F protein of RSV-B1 strain (IIIVIIVIL) [compound 21] | 21 cytokine-secreting cells per 5×10^5 splenocytes | 2.5 cytokine-secreting cells per 5×10^5 splenocytes |  | 80 cytokine-secreting cells per 5×10^5 splenocytes | 16.5 cytokine-secreting cells per 5×10^5 splenocytes | over 50 spots | 0.88 |  |  |  |
| 8: HLA-A*0201-restricted 9-mer synthetic peptide from F protein of RSV-B1 strain (ALLSTNKAV) [compound 8] | 43 cytokine-secreting cells per 5×10^5 splenocytes | 8.5 cytokine-secreting cells per 5×10^5 splenocytes |  | 86 cytokine-secreting cells per 5×10^5 splenocytes | 36 cytokine-secreting cells per 5×10^5 splenocytes | over 50 spots | 1.50 | ~10% |  |  |
| 16: HLA-A*0201-restricted 9-mer synthetic peptide from F protein of RSV-B1 strain (LMSNNVQIV) [compound 16] | 50.5 cytokine-secreting cells per 5×10^5 splenocytes | 52 cytokine-secreting cells per 5×10^5 splenocytes | over 50 spots | 28 cytokine-secreting cells per 5×10^5 splenocytes | 54 cytokine-secreting cells per 5×10^5 splenocytes | over 50 spots | 1.60 |  |  |  |
| 15: HLA-A*0201-restricted 9-mer synthetic peptide from F protein of RSV-B1 strain (KLMSNNVQI) [compound 15] | 59.5 cytokine-secreting cells per 5×10^5 splenocytes | 37 cytokine-secreting cells per 5×10^5 splenocytes | over 50 spots | 0 cytokine-secreting cells per 5×10^5 splenocytes | 39 cytokine-secreting cells per 5×10^5 splenocytes |  | 1.51 |  |  |  |
| 24: HLA-A*0201-restricted 9-mer synthetic peptide from F protein of RSV-B1 strain (LLSLIAVGL) [compound 24] | 42 cytokine-secreting cells per 5×10^5 splenocytes | 5 cytokine-secreting cells per 5×10^5 splenocytes |  | 0 cytokine-secreting cells per 5×10^5 splenocytes | 84.5 cytokine-secreting cells per 5×10^5 splenocytes | over 50 spots | 1.71 |  |  |  |
| RPQPRGRRQPIPKARQPEGR [HCV C55-74, reference compound] |  |  |  |  |  |  | 1 |  | no binding | 1.00 |

— paper PMC3183052, “Immunoprotectivity of HLA-A2 CTL Peptides Derived from Respiratory Syncytial Virus Fusion Protein in HLA-A2 Transgenic Mouse” (PLoS ONE, 2011)
